In ChEMBL document CHEMBL3991601, “The target landscape of clinical kinase drugs” (Science, 2017) one finds Kd data, which are given here for twelve molecules.

The source made the active and inactive calls.

One assay has as its target T1, ADP/ATP translocase 3 (Homo sapiens, UniProt P12236).
T1 sequence (P12236 whole entry): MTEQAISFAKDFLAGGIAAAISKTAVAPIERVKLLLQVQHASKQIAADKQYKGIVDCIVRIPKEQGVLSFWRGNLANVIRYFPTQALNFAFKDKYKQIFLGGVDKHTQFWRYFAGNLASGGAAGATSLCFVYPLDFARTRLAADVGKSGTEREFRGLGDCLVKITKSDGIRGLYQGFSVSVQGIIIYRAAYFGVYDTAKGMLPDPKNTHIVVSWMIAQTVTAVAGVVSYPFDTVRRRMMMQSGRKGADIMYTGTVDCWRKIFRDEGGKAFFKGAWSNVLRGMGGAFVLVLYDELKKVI

Assay [1] has as its target T2, RNA cytidine acetyltransferase (Homo sapiens, UniProt Q9H0A0).
T2 sequence (Q9H0A0 whole entry): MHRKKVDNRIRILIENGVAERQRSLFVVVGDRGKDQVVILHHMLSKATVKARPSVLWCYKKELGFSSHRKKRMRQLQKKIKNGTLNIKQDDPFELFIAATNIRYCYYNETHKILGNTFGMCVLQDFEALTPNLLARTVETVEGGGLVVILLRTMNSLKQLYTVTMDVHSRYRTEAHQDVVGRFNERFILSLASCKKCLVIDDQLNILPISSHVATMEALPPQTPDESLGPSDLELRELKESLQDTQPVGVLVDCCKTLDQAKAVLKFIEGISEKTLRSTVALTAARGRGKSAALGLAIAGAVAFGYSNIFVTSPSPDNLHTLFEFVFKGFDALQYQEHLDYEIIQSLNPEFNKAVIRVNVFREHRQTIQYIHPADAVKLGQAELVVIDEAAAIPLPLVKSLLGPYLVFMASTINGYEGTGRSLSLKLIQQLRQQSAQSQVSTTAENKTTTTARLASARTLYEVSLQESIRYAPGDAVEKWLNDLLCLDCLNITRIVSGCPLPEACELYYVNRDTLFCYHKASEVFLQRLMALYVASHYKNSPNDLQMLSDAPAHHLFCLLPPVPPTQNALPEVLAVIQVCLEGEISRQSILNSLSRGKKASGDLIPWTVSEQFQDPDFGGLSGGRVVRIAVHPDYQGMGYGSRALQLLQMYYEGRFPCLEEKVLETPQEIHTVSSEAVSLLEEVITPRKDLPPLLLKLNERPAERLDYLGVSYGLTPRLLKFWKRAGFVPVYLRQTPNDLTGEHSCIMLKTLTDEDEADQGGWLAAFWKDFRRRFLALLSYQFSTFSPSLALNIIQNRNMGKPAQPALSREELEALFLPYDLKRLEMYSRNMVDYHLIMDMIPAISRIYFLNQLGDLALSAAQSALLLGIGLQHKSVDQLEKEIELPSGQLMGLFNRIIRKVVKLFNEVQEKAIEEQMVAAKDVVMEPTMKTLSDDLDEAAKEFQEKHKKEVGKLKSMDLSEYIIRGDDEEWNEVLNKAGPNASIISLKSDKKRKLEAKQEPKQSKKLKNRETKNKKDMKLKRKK

Assay [2] concerns the target T3, Serine/threonine-protein kinase ULK1 (Homo sapiens, UniProt O75385).
T3 sequence (O75385 whole entry): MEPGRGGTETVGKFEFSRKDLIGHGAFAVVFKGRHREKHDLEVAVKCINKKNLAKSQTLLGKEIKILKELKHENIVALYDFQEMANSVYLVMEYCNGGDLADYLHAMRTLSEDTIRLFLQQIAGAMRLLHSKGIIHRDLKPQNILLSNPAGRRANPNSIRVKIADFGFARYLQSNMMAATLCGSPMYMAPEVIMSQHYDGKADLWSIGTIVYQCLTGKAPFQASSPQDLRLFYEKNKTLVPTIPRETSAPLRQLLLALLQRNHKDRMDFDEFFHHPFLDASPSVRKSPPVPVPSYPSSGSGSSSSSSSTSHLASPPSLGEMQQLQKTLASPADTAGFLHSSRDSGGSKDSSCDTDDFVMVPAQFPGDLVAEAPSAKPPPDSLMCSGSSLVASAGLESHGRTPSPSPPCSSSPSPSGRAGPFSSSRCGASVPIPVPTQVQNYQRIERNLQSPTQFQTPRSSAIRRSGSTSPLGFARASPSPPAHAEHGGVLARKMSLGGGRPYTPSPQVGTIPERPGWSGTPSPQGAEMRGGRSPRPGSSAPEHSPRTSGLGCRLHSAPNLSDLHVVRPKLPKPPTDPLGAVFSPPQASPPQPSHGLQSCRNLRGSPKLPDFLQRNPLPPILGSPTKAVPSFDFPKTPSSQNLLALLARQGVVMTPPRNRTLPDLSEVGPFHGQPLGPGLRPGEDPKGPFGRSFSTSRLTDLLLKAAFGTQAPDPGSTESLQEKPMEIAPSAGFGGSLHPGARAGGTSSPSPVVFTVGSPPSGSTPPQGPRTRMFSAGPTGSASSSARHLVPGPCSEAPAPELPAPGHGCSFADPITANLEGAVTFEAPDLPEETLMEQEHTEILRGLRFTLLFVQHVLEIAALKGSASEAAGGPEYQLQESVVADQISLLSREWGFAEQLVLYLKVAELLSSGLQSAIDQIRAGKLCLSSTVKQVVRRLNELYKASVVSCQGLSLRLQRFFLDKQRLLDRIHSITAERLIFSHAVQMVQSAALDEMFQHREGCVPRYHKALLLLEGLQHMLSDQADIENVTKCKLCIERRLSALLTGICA

In assay [3] the target is Ribosomal protein S6 kinase alpha-3 (Homo sapiens, UniProt P51812).
Chain of Ribosomal protein S6 kinase alpha-3 (P51812 whole entry): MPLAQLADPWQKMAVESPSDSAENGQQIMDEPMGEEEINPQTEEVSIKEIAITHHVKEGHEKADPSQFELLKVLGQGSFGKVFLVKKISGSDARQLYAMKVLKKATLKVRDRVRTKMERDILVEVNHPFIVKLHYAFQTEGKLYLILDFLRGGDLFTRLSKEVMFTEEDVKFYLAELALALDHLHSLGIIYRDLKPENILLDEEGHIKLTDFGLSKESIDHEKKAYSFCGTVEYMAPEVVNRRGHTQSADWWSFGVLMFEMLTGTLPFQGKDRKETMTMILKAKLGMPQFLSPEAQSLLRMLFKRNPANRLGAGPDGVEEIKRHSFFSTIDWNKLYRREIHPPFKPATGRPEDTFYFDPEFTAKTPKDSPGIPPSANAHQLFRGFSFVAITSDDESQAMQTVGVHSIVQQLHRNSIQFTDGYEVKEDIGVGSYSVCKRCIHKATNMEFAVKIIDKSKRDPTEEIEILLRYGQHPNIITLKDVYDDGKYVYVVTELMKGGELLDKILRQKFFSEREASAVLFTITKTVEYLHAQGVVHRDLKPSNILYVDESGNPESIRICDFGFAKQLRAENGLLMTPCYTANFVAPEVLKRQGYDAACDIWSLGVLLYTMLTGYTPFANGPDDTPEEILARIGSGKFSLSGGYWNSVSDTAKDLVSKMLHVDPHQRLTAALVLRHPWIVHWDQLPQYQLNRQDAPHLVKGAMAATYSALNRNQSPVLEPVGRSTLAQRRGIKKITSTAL

Broadly, the Kd is a measure of binding affinity in units of concentration.
Also: in the data inactive means no Kd found up to 30 µM.

As for `O=C(NC[C@H](O)CO)c1ccncc1Nc1ccc(I)cc1F` [PIMASERTIB], the Kd (at ADP/ATP translocase 3; in assay [1]; in assay [2]; in assay [3]) was > 30 µM (inactive) throughout.

As to `CCc1cc2c(cc1N1CCC(N3CCOCC3)CC1)C(C)(C)c1[nH]c3cc(C#N)ccc3c1C2=O` [ALECTINIB], the Kd (on ADP/ATP translocase 3; in assay [1]; in assay [2]; in assay [3]) was > 30 µM (inactive) in each case.

In the case of `Cc1c(NC(=O)OC[C@@H]2COCCN2)cn2ncnc(Nc3ccc4c(cnn4Cc4cccc(F)c4)c3)c12` [AC-480], the Kd (at ADP/ATP translocase 3; in assay [1]; in assay [2]; in assay [3]) was > 30 µM (inactive) each time.

As to `COc1cc(Nc2ncc(F)c(Nc3ccc4c(n3)N(COP(=O)(O)O)C(=O)C(C)(C)O4)n2)cc(OC)c1OC` [FOSTAMATINIB], the Kd (at ADP/ATP translocase 3; in assay [1]; in assay [2]; in assay [3]) was > 30 µM (inactive) throughout.

Consider `CN1CCN(c2nc(C3=C(c4c[nH]c5ccccc45)C(=O)NC3=O)c3ccccc3n2)CC1` [SOTRASTAURIN], for which the Kd (on ADP/ATP translocase 3; in assay [1]; in assay [2]; in assay [3]) was > 30 µM (inactive) in each case.

Turning to `CC(C)CC(=O)Nc1[nH]nc2c1CN(C(=O)C1CCN(C)CC1)C2(C)C` [PHA-793887], the Kd at ADP/ATP translocase 3 was > 30 µM (inactive); in assay [1] it was > 30 µM (inactive); in assay [2], 0.838 µM; in assay [3], > 30 µM (inactive).

Take `COc1cccc2cc(-c3nc([C@H]4CC[C@H](C(=O)O)CC4)n4ncnc(N)c34)[nH]c12` [OSI-027]: the Kd (at ADP/ATP translocase 3; in assay [1]; in assay [2]; in assay [3]) was > 30 µM (inactive) in each case.

In the case of `COc1ccc2c(OCc3nnc4ccc(-c5ccccc5)nn34)ccnc2c1` [AMG-208], the Kd (at ADP/ATP translocase 3; in assay [1]; in assay [2]; in assay [3]) was > 30 µM (inactive) each time.

For `COc1cc2ncnc(Nc3ccc(F)c(Cl)c3)c2cc1NC(=O)/C=C/CN1CCCCC1` [DACOMITINIB ANHYDROUS], the Kd (at ADP/ATP translocase 3; in assay [1]; in assay [2]; in assay [3]) was > 30 µM (inactive) in each case.

Regarding `CC[C@@](C)(Nc1ccnc(-c2c[nH]c3ncccc23)n1)C(=O)NCC(F)(F)F` [DECERNOTINIB], the Kd (on ADP/ATP translocase 3; in assay [1]; in assay [2]; in assay [3]) was > 30 µM (inactive) throughout.

For `O=C(NOC[C@H](O)CO)c1ccc(F)c(F)c1Nc1ccc(I)cc1F` [MIRDAMETINIB], the Kd (at ADP/ATP translocase 3; in assay [1]; in assay [2]; in assay [3]) was > 30 µM (inactive) throughout.

For the molecule `COc1cc2nccc(Oc3ccc(NC(=O)C4(C(=O)Nc5ccc(F)cc5)CC4)cc3)c2cc1OC` [CABOZANTINIB], the Kd (on ADP/ATP translocase 3; in assay [1]; in assay [2]; in assay [3]) was > 30 µM (inactive) in each case.
